The results in this text go back to patent publication US20220339204A1, “METHOD AND COMPOSITION FOR AM[…] SEEKING BEHAVIOR” (priority 2018, published 2022).

Molecules are shown by their SMILES. Entries after “also recorded” stand apart in the source; their conditions may differ.

This assay has as its system Sprague-Dawley rats (preference for drug-paired white chamber). Kind of assay: Conditioned Place Preference (CPP) conditioning and addiction with amphetamine, exploration on day 4 of withdrawal. Format: in vivo, male Sprague-Dawley rats. The source says: A three (3) chambered CPP apparatus, measuring 75 cm×30 cm×25 cm, was employed. The single black, white and grey chambers could each be isolated from the other by a sliding door on either side of the central grey chamber. […] The floor of the white chamber was covered with shiny transparent Perspex; while the floor of the black chamber was covered with wire mesh and sawdust, creating two contrasting chambers with distinct visual and tactile cues, representing a biased paradigm. The apparatus was thoroughly cleaned with a dilute solution of disinfectant upon completion of exploration by each rat.
Twenty four (24), three (3) month old male Sprague-Dawley rats, weighing approximately 250-350 g each, were obtained from the University of the West Indies Faculty of Medical Sciences Animal House following ethical approval of the protocol by the FMS/UHWI/UWI Ethics Committee, on the Mona Campus of the University of the West Indies. Animals were housed in pairs, in a normal twelve (12) hour light: dark cycle and fed food and water ad libitum.
Phase 1: Pre-conditioning, selection and first group assignments: Animals were selected for inclusion in the experiment via pre-conditioning. They were allowed an initial twenty (20) minute exploration of the CPP apparatus, and scores of chamber entries and time counted from a video recording. Animals displaying ≥80% preference for the dark CPP chamber during pre-conditioning were selected and randomly assigned to one of two treatment groups, AMP or SAL, each containing twelve animals.
Phase 2: Conditioning: During the conditioning phase, rats assigned to the amphetamine treatment group (Group AMP) received 1 ml of amphetamine hydrochloride (sigma) dissolved in 0.9% saline, providing 5 mg/kg intraperitoneally (i.p.). Rats in Group SAL were given 1 ml of physiological saline intraperitoneally.
Conditioning consisted of 8 days of daily, group-assigned intraperitoneal injection and then immediate, individual confinement to the white, ‘aversive’ chamber for thirty (30) minutes. […]
Phase 3: Amphetamine addiction and drug withdrawal: On day 9, the addiction phase ensued, with a six (6) day period of exposure to a daily increasing amphetamine dose for the drug treated (Group AMP) animals. […] During this period, the number of entries made into each chamber and the time spent in each chamber were recorded for all rats via scores from video recordings of exploration.
All the resulting data were analyzed, using the SPSS 19 software. The mean percent time and entries into the white CPP chamber by each animal were scored from video recordings. […]

The mark [1] stands for this setting: Groups AMP-S and AMP-N, amphetamine 5-7 mg/kg i.p., t-test, p<0.001, hydrochloride.

As to `CC(N)Cc1ccccc1.Cl` (stereo not shown) [Amphetamine, amphetamine hydrochloride], the “percent time in the drug-paired white chamber during withdrawal versus saline treated groups” value (AMP-S and AMP-N combined n=12 versus SAL-S and SAL-N, p<0.01) is listed as “significantly increased”. The “percent entries into the drug-paired white chamber during withdrawal versus saline treated groups” value (AMP-S and AMP-N versus SAL-S and SAL-N, p<0.01) was “significantly higher”. Also, under setting [1], the “percent entries into the drug-paired white chamber during withdrawal versus pre-conditioning” value is “significantly more entries; also recorded: significantly increased” and the “percent time in the drug-paired white chamber during withdrawal versus pre-conditioning” value is on record as “significantly more time; also recorded: significantly increased”.
